Paper PMC6687188, “Novel lactate dehydrogenase inhibitors with in vivo efficacy against Cryptosporidium parvum” (PLoS Pathogens, 2019)
Read-outs that look alike come from different tables or passages of the source. Non-standard residues stand in square brackets, D forms with d. Residues, ends and D or L forms follow the SMILES beside them. ξ: configuration not given here. *: point of attachment. ξNMe2Val = CC(C)C(C(=O)*)N(C)C; NMeV = CN[CH](C(=O)O)C(C)C; NHBn = c1ccc(CN*)cc1

Target: recombinant CpLDH protein (Cryptosporidium parvum, UniProt Q9GT92, F198L/K295E/R251K)

SMILES | MEAN CpLDH INHIBITION (%) | MEAN CpLDH INHIBITION (%) (20 μM compound, 10 mM pyruvate, 1 mM NADH, values below 0 = augmenters)
CCOC(=O)c1sc2[n+](c1C)C(=O)/C(=C/c1ccc([N+](=O)[O-])cc1)S2.[Cl-] [NSC658293] | -21.86 | –
CCn1c(O)c(C=Nc2ccccc2)s/c1=N/Nc1ncc(CC(=O)Nc2ccccc2C)s1 [NSC658350] | -19.59 | –
CN(C)CCCCN1CCc2c(n(C)c3ccccc23)C1=O.Cl [NSC658388] | -30.45 | –
CC(=O)N=C1N(/C=C2\C(=O)Oc3ccccc3C2=O)C(=O)/C(=C/c2ccccc2Cl)N1C [NSC658494] | -56.68 | –
COc1ccc(NC(=O)C(=O)/C=C(\O)c2ccccc2)cc1 [NSC658709] | -17.00 | –
O=C(CC(O)(C(F)(F)F)C(F)(F)Cl)CC(O)(C(F)(F)F)C(F)(F)Cl (centres unmarked) [NSC659174] | -13.23 | –
CN=c1sc2c(n1C)C(=O)c1ccccc1C2=O [NSC659501] | -27.66 | –
COCCOC1=C(Cl)C(=O)c2c(O)ccc(O)c2C1=O [NSC659997] | -9.35 | –
Cl.O=C1C=CC(=O)c2c(O)c(N3CCN(CCOCCO)CC3)c(Br)c(O)c21 [NSC659999] | -30.12 | –
Cc1nn(-c2ccccc2)c2c1CC(=O)Nc1ccccc1-2 [NSC662553] | -64.36 | –
C=C(Cl)C(Cl)(CBr)CCC(Br)C(C)(C)Cl (centres unmarked) [NSC662825] | -7.35 | –
COc1ccc(NC2=NCCO2)c2c1CCCC2 [NSC663996] | -51.63 | –
O=C1C(C(O)(C(F)(F)F)C(F)(F)F)CCC1C(O)(C(F)(F)F)C(F)(F)F (centres unmarked) [NSC664181] | -5.59 | –
CN(NC1=NCCO1)c1ccc2ccccc2c1 [NSC664286] | -26.92 | –
CC(Cc1ccccc1)NC1=NCCO1 (centres unmarked) [NSC664298] | -116.71 | –
CC(=O)C(N1CCCCC1)C(O)(C(F)(F)F)C(F)(F)F (centres unmarked) [NSC664327] | -14.71 | –
O/N=C(/CC(O)(C(F)(F)F)C(F)(F)F)c1cccc(Cl)c1 [NSC664329] | -28.29 | –
CC1=CC(=O)c2cccc(NC3=NCCO3)c21 [NSC664331] | -15.78 | –
[N-]=[N+]=NC1=NNC2(C(=O)N1)c1ccccc1-c1ccccc12 [NSC666168] | -17.65 | –
CCCCCCC1CC(=O)C1(Cl)Cl (centres unmarked) [NSC666526] | -2.48 | –
CCOC(=O)Cc1cc(=O)oc2cc(O)ccc12 [NSC667235] | -25.51 | –
CN(C)c1cccc(/C=C(\C#N)c2ccccc2)c1 [NSC667251] | -17.96 | –
S=C1Nc2cnc3ccccc3c2SC1c1ccccc1 (centres unmarked) [NSC667467] | -21.66 | –
C=C1CC(Cn2cc(Br)c(=O)[nH]c2=O)(c2ccc(-c3ccccc3)cc2)OC1=O (centres unmarked) [NSC668260] | -9.25 | –
C=C1CC(COc2cc(=O)oc3ccccc23)(c2ccccc2)OC1=O (centres unmarked) [NSC668270] | -4.80 | –
CC(C)C(NC(=O)C(C(C)C)N(C)C)C(=O)N(C)C(C(=O)N1CCCC1C(=O)N1CCCC1C(=O)NCc1ccccc1)C(C)C.Cl (centres unmarked) [NSC669356] (ξNMe2Val-V[NMeV]PP-NHBn; configuration not given here) | -120.43 | –

SMILES | MEAN CpLDH INHIBITION (%) | MEAN CpLDH INHIBITION (%) (20 μM compound, 10 mM pyruvate, 1 mM NADH, values below 0 = augmenters)
O=C(ON=C1c2ccccc2C(Br)C(Br)c2ccccc21)c1ccccc1 (centres unmarked) [NSC670140] | -63.78 | –
CN(C)CCOC1(Cc2ccc(Cl)cc2Cl)CCC(C(C)(C)C)CC1.Cl (centres unmarked) [NSC670224] | -73.95 | –
Cc1ccc(CC2(OCCN(C)C)CCC(C(C)(C)C)CC2)cc1.O=C(O)/C=C/C(=O)O (centres unmarked) [NSC670225] | -54.38 | –
CN(C)CCOC1(Cc2ccc(F)cc2)CCC(C(C)(C)C)CC1.O=C(O)/C=C/C(=O)O (centres unmarked) [NSC670226] | -20.67 | –
Cc1ccc(CC2(OCCN(C)C)CCC(C(C)(C)C)CC2)cc1.O=C(O)/C=C/C(=O)O (centres unmarked) [NSC670229] | -52.64 | –
CC(=O)c1sc2c(c1OC(=O)c1ccc(Cl)cc1Cl)c(=O)n(-c1ccccc1)c(=S)n2-c1ccccc1 [NSC671136] | -17.97 | –
COc1ccc(N=C2C(=Nc3ccc(OC)cc3)N(c3ccc(N(C)C)cc3)C(=S)N2c2ccc(OC)cc2)cc1 [NSC671394] | -158.34 | –
O=[N+]([O-])c1ccc2oc(=Nc3ccccc3)c(Nc3ccccc3)nc2c1 [NSC671424] | -1.46 | –
N[C@@H](Cc1ccc2oc3cc(=O)c4ccccc4c-3nc2c1)C(=O)O [NSC672425] | -0.60 | –
CCCCCCCCCCCCCCCC[N+](C)(C)CCl.[Cl-] [NSC672904] | -0.06 | –
COC(=O)C1CCC(=O)N1C(c1ccc(OC)cc1)c1cc(OC)c(OC)c(OC)c1 (centres unmarked) [NSC673622] | -14.54 | –
NC(=O)N/N=C1\CC2C3CC4C2C4C13 (centres unmarked) [NSC673912] | -116.36 | –
Cc1cc(-c2nc3ccccc3s2)ccc1N [NSC674495] | -21.24 | –
CCCN(CCC)C(=S)Sc1nc(C)nc(N2CCN(c3nc(C)nc(SC(=S)N(CCC)CCC)c3[N+](=O)[O-])CC2)c1[N+](=O)[O-] [NSC675593] | -141.86 | –
COc1ccccc1[S+]([O-])Nc1ccccc1 (centres unmarked) [NSC676561] | -16.89 | –
O=C(O)/C=C\C(=O)O.[N-]=[N+]=Nc1ccc2c(c1)Sc1ccccc1N2CCCCN1CCN(Cc2ccc(C(=O)c3ccccc3)cc2)CC1 [NSC676963] | -97.54 | –
COc1ccc(NC(=O)CC(=O)N2N=C(C)C(N=Nc3ccc(S(=O)(=O)c4ccc(N=NC5C(=O)N(C(=O)CC(=O)Nc6ccc(OC)cc6)N=C5C)cc4)cc3)C2=O)cc1 (centres unmarked) [NSC677392] | -119.10 | –
COc1ccc(OC)c2nc3c(C(=O)NCCN(C)C)cccc3nc12.Cl [NSC678917] | -41.85 | –
CN(C)CCNC(=O)c1cccc2[nH]c(-c3ccncc3)nc12.Cl [NSC678932] | -5.91 | –
COC(=O)c1c[nH]c2c1-c1cc(C(=O)OCc3ccccc3)n(S(=O)(=O)c3ccc(C)cc3)c1C(=O)C2=O [NSC679524] | -184.78 | –
COC(=O)c1cc(-c2c[nH]cc2C(=O)OCc2ccccc2)cn1S(=O)(=O)c1ccc(C)cc1 [NSC679527] | -27.66 | –
CC1=C/C(=N\OCC(=O)O)CC(c2ccc(C(C)C)cc2)C1 (centres unmarked) [NSC680506] | -8.88 | –
Cl.NC1(CCNC(=O)c2ccccc2)CCN(C(=O)c2ccccc2)CC1 [NSC680509] | -41.56 | –
Cc1cc(N(C)C)ccc1N=Nc1ccc2ncccc2c1 [NSC680516] | -19.55 | –
N#CC(NCc1cccc(CNC(C#N)c2ccccc2)c1)c1ccccc1 (centres unmarked) [NSC681730] | -12.34 | –
CCC(C#N)(c1ccccc1)N(CCc1ccccc1)C(=O)c1ccccc1 (centres unmarked) [NSC681741] | -7.66 | –

SMILES | MEAN CpLDH INHIBITION (%) | MEAN CpLDH INHIBITION (%) (20 μM compound, 10 mM pyruvate, 1 mM NADH, values below 0 = augmenters)
N#CC(c1ccccc1)N(CCCCCCN(C(=O)c1ccccc1)C(C#N)c1ccccc1)C(=O)c1ccccc1 (centres unmarked) [NSC681744] | -15.26 | –
COc1ccc(-c2cc(-c3ccccc3)nc3c2CC(=O)Nc2ccccc2-3)cc1OC [NSC682769] | -0.10 | –
NC1N=C(c2ccc(Cl)cc2)C2=C(N1)c1ccccc1CC2 (centres unmarked) [NSC682864] | -37.11 | –
COc1ccc2cc(CN3CCC(C4CCN(Cc5ccc6cc(OC)ccc6c5)CC4)CC3)ccc2c1.Cl [NSC683792] | -73.55 | –
O=C1Cc2c(-c3ccccc3)cc(-c3cccc(Cl)c3)nc2-c2ccccc2N1 [NSC684480] | -22.58 | –
CCOC(=O)NC(Nc1ccc(F)cc1)(C(=O)OCC)C(F)(F)F (centres unmarked) [NSC684845] | -7.56 | –
CC(C)[Si]1(C(C)C)OCC2OC(n3cnc4c(N)ncnc43)C(N)C2O[Si](C(C)C)(C(C)C)O1 (centres unmarked) [NSC687330] | -17.98 | –
COc1ccc(/C=C2\CCCc3ccccc3C2=O)cc1 [NSC687667] | -11.60 | –
COc1cc(OC)c2c(C)cc(=O)oc2c1 [NSC688795] | -40.28 | –
CCCCCC(/C=C/[C@@H]1CC(=O)C[C@H]1O[Si](C)(C)C(C)(C)C)OCOCCOC (some centres unmarked) [NSC689228] | -5.60 | –
O=C(OCC12CC3CC(CC(C3)C1)C2)c1ccc(NCc2cc(O)ccc2O)cc1 [NSC689857] | -0.01 | –
COc1ccc2nc3cc([N+](=O)[O-])ccc3c(NNc3ccccc3)c2c1 [NSC689872] | -7.48 | –
O=[N+]([O-])c1cccc2nc3ccccc3c(NCCCNc3c4ccccc4nc4cccc([N+](=O)[O-])c34)c12 [NSC690634] | -61.23 | –
CCOC(=O)c1ccc(-c2cc(C)no2)[nH]1 [NSC693053] | -6.53 | –
CCCCCCCCCCCCCCCC[N+](C)(C)Cc1ccc(F)cc1.[Cl-] [NSC693172] | -0.60 | –
C/C(=N\Nc1nc2ccccc2s1)c1ccncn1 [NSC693632] | 0.06 | –
CON(C)C(=O)C1CCCO1 (centres unmarked) [NSC695218] | -28.71 | –
CN(C)CC1CCC/C(=C\c2ccc(OC(=O)/C=C/c3ccccc3)cc2)C1=O.Cl (centres unmarked) [NSC697443] | -57.12 | –
CC(=O)NC1C(OCc2ccccc2)OC(CO)C(O)C1OC(C)C(=O)NC(C(=O)NC(CCC(=O)NCCCCNc1c2ccccc2nc2cccc([N+](=O)[O-])c12)C(N)=O)C(C)C (centres unmarked) [NSC697468] | -5.22 | –
CC1=C(N2CC2)C(=O)C(CO)=C(N2CC2)C1=O [NSC697726] | -69.94 | –
Cc1ccc(S(=O)(=O)c2ccc([N+](=O)[O-])o2)cc1 [NSC697923] | – | -17.27
Cc1nnc(-n2c(O)cc(=O)n(-c3ccccc3)c2=S)nc1/C=C/c1ccc(N(C)C)cc1 [NSC698031] | -6.31 | –
CCCCn1c2c(n(CCCC)c1=S)-c1c(n(CCCC)c(=S)n1CCCC)SSSS2 [NSC700582] | -83.75 | –
Cc1ccc(N=N/C(=N\NC(=O)c2ccc(C)cc2)c2ccc(N(CCC#N)CCC#N)cc2C)cc1 [NSC703550] | -165.27 | –
CC(C)(C)N(Cc1ccc2c(c1)OCO2)C(=O)/C=C\[S+]([O-])c1ccccc1 (centres unmarked) [NSC705330] | -49.87 | –
